In general, pKi refers to the Ki on a negative log10 scale, so that one unit is a factor of ten.

pKi: −log10 of the molar value.

This experiment in a line: Activity was evaluated by inhibition of the binding of 1 nM [3H]DPDPE at Opioid receptor delta 1 binding site.

For the molecule `COC[C@]12Cc3ccc(O)cc3[C@](C)(CCc3nnnn31)C2` [1-methoxymethyl-9-methyl-(1S,9R)-2,3,4,5-tetraazatetracyclo[7.7.1.02,6.010,15]heptadeca-3,5,10(15),11,13-pentaen-12-ol], the pKi is less than 5.00.

In turn, `CN1CNC2CCC3(C)CC2(Cc2ccc(O)cc23)C1` (stereo unspecified) [3,9-dimethyl-3,5-diazatetracyclo[7.7.1.01,6.010,15]heptadeca-10,12,14-trien-12-ol] gave a negative-log Ki (pKi) of 6.06.

In turn, `CN1CC23Cc4ccc(O)cc4C(C)(CCC12)C3` (stereo unspecified) [9,13-dimethyl-13-azatetracyclo[7.5.1.01,12.03,8]pentadeca-3,5,7-trien-6-ol] gave a pKi of less than 5.00.

In turn, `CNC1CCC2(C)CC1(CO)Cc1ccc(O)cc12` (stereo unspecified) [9-Hydroxymethyl-1-methyl-10-methylamino-tricyclo[7.3.1.0*2,7*]trideca-2,4,6-trien-4-ol] showed a negative logarithm of the Ki (pKi) of less than 3.00.

Molecule `CNCC12Cc3ccc(O)cc3C(C)(CCC1N)C2` (stereo unspecified) [10-Amino-1-methyl-9-methylaminomethyl-tricyclo[7.3.1.0*2,7*]trideca-2,4,6-trien-4-ol] had a pKi of 6.34.

For `CC12CCC(N)C(CO)(Cc3ccc(O)cc31)C2` (stereo unspecified) [10-Amino-9-hydroxymethyl-1-methyl-tricyclo[7.3.1.0*2,7*]trideca-2,4,6-trien-4-ol], the negative logarithm of the Ki (pKi) is less than 3.00.

With `COCC12Cc3ccc(O)cc3C(C)(CCC1N)C2` (stereo unspecified) [10-Amino-9-methoxymethyl-1-methyl-tricyclo[7.3.1.0*2,7*]trideca-2,4,6-trien-4-ol], the pKi was 6.33.

In turn, `CN(C)C1CCC2(C)CC1(C)Cc1ccc(O)cc12` (stereo unspecified) [10-Dimethylamino-1,9-dimethyl-tricyclo[7.3.1.0*2,7*]trideca-2,4,6-trien-4-ol] gave a pKi of 5.00.

Take `CN(C)C1CCC2(C)CC1(CO)Cc1ccc(O)cc12` (stereo unspecified) [10-Dimethylamino-9-hydroxymethyl-1-methyl-tricyclo[7.3.1.0*2,7*]trideca-2,4,6-trien-4-ol]: the negative logarithm of the Ki (pKi) was less than 3.00.

The molecule `COCC12Cc3ccc(O)cc3C(C)(CCC1N(C)C)C2` (stereo unspecified) [10-Dimethylamino-9-methoxymethyl-1-methyl-tricyclo[7.3.1.0*2,7*]trideca-2,4,6-trien-4-ol] gave a pKi of 5.85.

With `COC[C@]12Cc3ccc(O)cc3[C@](C)(CCCN1C)C2` [(1R,9R)-9-Methoxymethyl-1,10-dimethyl-10-aza-tricyclo[7.4.1.0*2,7*]tetradeca-2(7),3,5-trien-4-ol], the negative-log Ki (pKi) was less than 5.30.

The values are drawn from BindingDB's records for doi:10.1021/jm950817g (Institute, 1996).
